Assay results from article PMC11768184, “Non-Steroidal Anti-Inflammatory Drugs Are Inhibitors of the Intestinal Proton-Coupled Amino Acid Transporter (PAT1): Ibuprofen and Diclofenac Are Non-Translocated Inhibitors” (Pharmaceutics, 2025).

Legend:
Format in all cases: cell-based
[1] = molecular target: T1, proton-coupled amino acid transporter (hPAT1) (Homo sapiens, UniProt Q7Z2H8); assay: TEVC in hPAT1-expressing Xenopus oocytes; [3H]-proline uptake inhibition and kinetics in Caco-2 cells, pH […]
T1 construct: gene SLC36A1

[2] = molecular target: T1, proton-coupled amino acid transporter (hPAT1); assay: concentration-dependent inhibition of [3H]-proline uptake in Caco-2 cells, pH […]
[3] = molecular target: T1, proton-coupled amino acid transporter (hPAT1); assay: TEVC in hPAT1-expressing Xenopus oocytes; [3H]-proline uptake inhibition in Caco-2 cells, pH […]

T1 sequence (Q7Z2H8 whole entry): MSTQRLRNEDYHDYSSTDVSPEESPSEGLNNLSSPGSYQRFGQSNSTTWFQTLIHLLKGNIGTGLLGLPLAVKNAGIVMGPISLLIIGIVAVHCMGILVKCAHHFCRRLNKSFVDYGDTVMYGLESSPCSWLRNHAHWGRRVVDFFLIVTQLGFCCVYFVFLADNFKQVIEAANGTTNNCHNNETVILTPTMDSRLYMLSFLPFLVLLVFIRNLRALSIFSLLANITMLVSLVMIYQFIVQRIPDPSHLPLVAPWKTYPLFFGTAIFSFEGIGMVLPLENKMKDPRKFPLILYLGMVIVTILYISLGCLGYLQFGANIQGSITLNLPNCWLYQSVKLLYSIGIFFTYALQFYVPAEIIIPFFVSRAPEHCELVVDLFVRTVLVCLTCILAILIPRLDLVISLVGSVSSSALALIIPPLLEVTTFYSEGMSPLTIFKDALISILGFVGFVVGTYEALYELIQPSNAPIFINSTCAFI

CC(C)Cc1ccc(C(C)C(=O)O)cc1 (racemic) [ibuprofen]
IC50 [1]: 954 µM

CC(C(=O)O)c1ccc(-c2ccccc2)c(F)c1 (racemic) [flurbiprofen]
IC50 [2]: 280 µM

O=C(O)Cc1ccccc1Nc1c(Cl)cccc1Cl [diclofenac]
IC50 [3]: 272 µM
